Results on four compounds are retold here after publication PMC9415116, “Regionally selective cardiovascular responses to adenosine A2A and A2B receptor activation” (The FASEB Journal, 2022).

The target in one assay is T1, rat Nluc-A2BR (Rattus norvegicus, UniProt P29276, M1L).
T1 construct: gene Adora2b; internal XhoI site removed (silent by primer); transient in intact HEK293T cells
T1 sequence (P29276 1-332 M1L): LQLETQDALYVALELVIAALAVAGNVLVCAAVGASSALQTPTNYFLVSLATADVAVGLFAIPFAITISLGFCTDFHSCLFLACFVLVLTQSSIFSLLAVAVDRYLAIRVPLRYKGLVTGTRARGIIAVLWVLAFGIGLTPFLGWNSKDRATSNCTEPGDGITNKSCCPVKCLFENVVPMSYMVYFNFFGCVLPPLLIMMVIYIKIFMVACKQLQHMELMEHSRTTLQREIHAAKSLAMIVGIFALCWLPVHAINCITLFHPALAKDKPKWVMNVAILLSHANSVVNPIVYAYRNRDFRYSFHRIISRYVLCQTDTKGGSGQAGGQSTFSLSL
In words: NanoBRET competition binding with CA200645, intact HEK293T cells. Format: cell-based. Particulars: for Ki: read-out: Nluc-rat A2B (pKD or pKi) (converted). From the text: NanoBRET competition binding with CA200645, intact HEK293T cells on rat Nluc-A2BR
On the technique in general: Bioluminescence resonance energy transfer reports proximity on the nanometre scale.

The next assay deals with T2, rat Nluc-A2AR (Rattus norvegicus, UniProt P30543, M1L).
T2 construct: gene Adora2a; internal BamHI site removed (silent by primer); transient in intact HEK293T cells
The assay is described as above. Particulars: read-out: Nluc-rat A2A (pKD or pKi) (converted). Format: cell-based. From the text:
NanoBRET competition binding with CA200645, intact HEK293T cells on rat Nluc-A2AR

T2 sequence (P30543 whole entry M1L): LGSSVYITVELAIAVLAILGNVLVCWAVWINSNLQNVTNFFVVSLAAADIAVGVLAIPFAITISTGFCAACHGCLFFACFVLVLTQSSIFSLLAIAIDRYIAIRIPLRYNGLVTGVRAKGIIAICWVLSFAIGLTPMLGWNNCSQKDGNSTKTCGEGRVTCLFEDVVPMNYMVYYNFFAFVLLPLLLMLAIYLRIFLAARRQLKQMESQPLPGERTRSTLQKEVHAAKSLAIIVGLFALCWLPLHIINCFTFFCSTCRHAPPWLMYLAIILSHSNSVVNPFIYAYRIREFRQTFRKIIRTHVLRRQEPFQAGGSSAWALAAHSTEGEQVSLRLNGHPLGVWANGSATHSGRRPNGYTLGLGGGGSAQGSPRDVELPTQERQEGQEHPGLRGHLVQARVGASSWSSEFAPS

On to `N#Cc1c(N)nc(SCC(N)=O)c(C#N)c1-c1ccc(OCC2CC2)cc1` [BAY 60‐6583, 2‐[[6‐Amino‐3,5‐dicyano‐4‐[4‐(cyclopropylmethoxy)phenyl]‐2‐pyridinyl]thio]‐acetamide], for which the “Nluc-rat A2B (pKD or pKi)” value at rat Nluc-A2BR ([…] CA200645, HBSS pH […] BSA, […] DMSO, […] °C, […] h, Cheng-Prusoff) stood at 6.33 ± 0.03.
As to `CCCn1c(=O)[nH]c2nc(-c3ccc(S(=O)(=O)N4CCN(c5ccc(Cl)cc5)CC4)cc3)[nH]c2c1=O` [PSB 603], the figures for the Ki at rat Nluc-A2BR and on rat Nluc-A2AR were 2 nM and 490 nM, respectively.
As for `CCCn1c(=O)[nH]c2nc(-c3ccc(S(=O)(=O)O)cc3)[nH]c2c1=O` [PSB 1115, 4‐(2,3,6,7‐Tetrahydro‐2,6‐dioxo‐1‐propyl‐1H‐purin‐8‐yl)‐benzenesulfonic acid], the Ki on rat Nluc-A2BR is 537 nM; at rat Nluc-A2AR, 2880 nM.
For `Nc1nc2c(cnn2CCc2ccccc2)c2nc(-c3ccco3)nn12` [SCH 58261, 2‐(2‐Furanyl)‐7‐(2‐phenylethyl)‐7H‐pyrazolo[4,3‐e][1,2,4]triazolo[1,5‐c]pyrimidin‐5‐amine], the Ki on rat Nluc-A2BR was 708 nM.
